Common to all, as to assay type: cell-based
Assay [1] concerns the target p-EGFR Del19/C797S (H1975-clone #23 cells) (Homo sapiens, UniProt P00533). As to the kind of experiment: Cell p-EGFR inhibition assay, HTRF, H1975-clone#23 (DEL19/C797S) cells. Particulars: 16 h treatment; for Imax (%): maximum percentage of pEGFR inhibition; for IC50: pEGFR inhibition. The gist of the method: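 Phospho-EGFR read by overnight HTRF on lysates, normalized to DMSO-treated high control; IC50, Hill slope and Imax fitted. Compounds were applied for 16 h (10 uM top, 5-fold steps, 8 doses) to an H1975 single clone carrying only exogenous Del19/C797S EGFR after sgRNA knockout of endogenous copies.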
(In TR-FRET formats the signal depends on donor and acceptor labels being close together.)

Assay [2] deals with T1, EGFR-L858R/C797S (H1975-clone #8 cells) (Homo sapiens, UniProt P00533, C797S/L858R).
T1 construct: expressed in transfected cells; host or cells: H1975 (endogenous EGFR knocked out, clone #8)
As to the kind of experiment: Cell degradation of EGFR, HTRF assay, H1975-clone#8 (L858R/C797S) cells. Particulars: 16 h treatment; for DC50: EGFR degradation; for Dmax: maximum percentage of degradation.

For assay [3], the target named is T2, p-EGFR L858R (BaF3-L858R cells) (Homo sapiens, UniProt P00533, L858R).
T2 construct: host or cells: BaF3
As to the kind of experiment: Cell p-EGFR inhibition assay, HTRF, BaF3-L858R cells. Particulars: 16 h treatment; for Imax (%): maximum percentage of pEGFR inhibition; for IC50: pEGFR inhibition. The gist of the method:
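BaF3-L858R cells treated 16 h at 37 °C, 5% CO2 with compound from 10 uM top, 5-fold dilutions, 8 doses, in 0.1% DMSO medium. Lysates read overnight by HTRF p-EGFR antibodies; IC50 fitted to four-parameter curve against DMSO high control.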

Assay [4] has as its target T3, EGFR L858R (BaF3-L858R cells) (Homo sapiens, UniProt P00533, L858R).
T3 construct: host or cells: BaF3
As to the kind of experiment: Cell degradation of EGFR, HTRF assay, BaF3-L858R cells. The settings on record: 16 h treatment; for DC50: EGFR degradation; for Dmax: maximum percentage of degradation. The gist of the method: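 EGFR L858R levels measured by HTRF antibody pair in lysed BaF3-L858R cells after 16 h compound exposure (8-point 5-fold series from 10 uM final, 37° C). Degradation is relative to DMSO-only cells; DC50 fitted with Hill equation, Dmax taken as the largest percent loss.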

One may read the IC50 as the point on the concentration scale where inhibition reaches its midpoint. High values mean weaker potency, low ones greater potency. What is called DC50 is the midpoint of the concentration-degradation curve. A word on the Dmax: it is the largest share of the target that was removed.

With `Cc1cc2cc(n1)-c1c(C)nn(C)c1OC[C@H]1CCC(C1)CN1/C(=N/C2=O)Nc2ccc(N3CCN(C4CCN(c5ccc(C6CCC(=O)NC6=O)nc5C)CC4)CC3)cc21` (some centres unmarked) [Example 72, 3-(6-methyl-5-(4-(4-((7^1R,7^3S,E)-1^1,1^3,2^6-trimethyl-3-oxo-5^2,5^3-dihydro-1^1H,5^1H-9-oxa-4-aza-5(2,1)-benzo[d]imidazola-2(2,4)-pyridina-1(4,5)-pyrazola-7(1,3)-cyclopentanacyclononaphane-5^6-yl)piperazin-1-yl)piperidin-1-yl)pyridin-2-yl)piperidine-2,6-dione], in assay [1], the “Imax (%)” value came out at 101.7% and the IC50 was 0.6 nM. In assay [2], the DC50 came out at 0.64 nM and the Dmax came out at 76.6%. Besides, in assay [3], the “Imax (%)” value was found to be 92.8% and inhibition was half-maximal at 3.2 nM (IC50). Moreover, in assay [4], the DC50 is 0.4 nM and the Dmax amounted to 91.6%.
Consider `COC[C@@H]1CN(c2ccc3c(c2)N2CC4CC[C@H](COc5c(c(C(F)(F)F)nn5C)-c5cc(cc(C)n5)C(=O)/N=C/2N3)C4)CCN1C1CCN(c2cc(F)c([C@H]3CCC(=O)NC3=O)c(F)c2)CC1` [Example 77, (R)-3-(4-(4-((S)-4-((7^1R,7^3S,E)-1^1,2^6-dimethyl-3-oxo-1^3-(trifluoromethyl)-5^2,5^3-dihydro-1^1H,5^1H-9-oxa-4-aza-5(2,1)-benzo[d]imidazola-2(2,4)-pyridina-1(4,5)-pyrazola-7(1,3)-cyclopentanacyclononaphane-5^6-yl)-2-(methoxymethyl)piperazin-1-yl)piperidin-1-yl)-2,6-difluorophenyl)piperidine-2,6-dione], for which, in assay [1], the “Imax (%)” value amounted to 99.2% and the IC50 amounted to 9.5 nM. In assay [2], this molecule registered a DC50 of 5.5 nM and a Dmax of 85.7%. Also, in assay [3], the “Imax (%)” value is listed as 91.3% and the IC50 was 10.9 nM. Besides, in assay [4], the DC50 was found to be 3.4 nM and the Dmax was determined as 89.5%.
Consider `Cc1cc2cc(n1)-c1cnn(C)c1OC[C@H]1CCC(C1)CN1/C(=N/C2=O)Nc2ccc(N3CCC(N4CCC(Oc5cc(F)c([C@H]6CCC(=O)NC6=O)c(F)c5)CC4)CC3)cc21` [Example 113, (R)-3-(4-((1′-((7^1R,7^3S,E)-1^1,2^6-dimethyl-3-oxo-5^2,5^3-dihydro-1^1H,5^1H-9-oxa-4-aza-5(2,1)-benzo[d]imidazola-2(2,4)-pyridina-1(4,5)-pyrazola-7(1,3)-cyclopentanacyclononaphane-5^6-yl)-[1,4′-bipiperidin]-4-yl)oxy)-2,6-difluorophenyl)piperidine-2,6-dione], for which the “Imax (%)” value in assay [1] worked out at 99%; in assay [3], 94.6%. For the same molecule, the IC50 in assay [1] turned out to be 0.7 nM; in assay [3], 17.1 nM. For the same molecule, the results for the DC50 in assay [2] and in assay [4] were 2.69 nM and 3.49 nM, respectively. Also, the Dmax in assay [2] was 77.3%; in assay [4] it was 70.5%.
Consider `Cc1cc2cc(n1)-c1cnn(C)c1OC[C@H]1CCC(C1)CN1/C(=N/C2=O)Nc2ccc(N3CCC(N4CCC(Nc5cc(F)c([C@H]6CCC(=O)NC6=O)c(F)c5)CC4)CC3)cc21` (single isomer, unassigned) [Example 116], for which, in assay [1], the “Imax (%)” value turned out to be 99.4% and inhibition was half-maximal at 0.8 nM (IC50). In assay [2], this molecule had a DC50 of 0.61 nM and a Dmax of 83.4%. Further, in assay [3], the “Imax (%)” value worked out at 98.5% and it took 7.9 nM to reach half-maximal inhibition (IC50). In assay [4], the DC50 was found to be 1.25 nM and the Dmax amounted to 85.4%.
Turning to `Cc1cc2cc(n1)-c1c(C)nn(C)c1OC[C@H]1CC[C@H](C1)CN1/C(=N/C2=O)Nc2ccc(N3CCN([C@H]4CCN(c5cc(F)c([C@H]6CCC(=O)NC6=O)c(F)c5)C4)CC3)cc21` (single isomer, unassigned) [Example 186], in assay [1], the “Imax (%)” value turned out to be 100.56% and 2.37 nM corresponded to half-maximal inhibition (IC50). In assay [2], this molecule gave a DC50 of 2.92 nM and a Dmax of 80.4%. Besides, in assay [3], the “Imax (%)” value is listed as 92% and the IC50 was determined as 4.77 nM. In assay [4], this molecule came in with a DC50 of 3.82 nM and a Dmax of 80%.
As for `COC[C@H]1CN(c2cc3c(cc2F)N/C2=N\C(=O)c4cc(C)nc(c4)-c4c(C)nn(C)c4OC[C@H]4CC[C@H](C4)CN23)CCN1C1CCN(c2cc(F)c([C@H]3CCC(=O)NC3=O)c(F)c2)CC1` [Example 165, (R)-3-(2,6-difluoro-4-(4-((R)-4-((7^1R,7^3S,E)-5^5-fluoro-1^1,1^3,2^6-trimethyl-3-oxo-5^2,5^3-dihydro-1^1H,5^1H-9-oxa-4-aza-5(2,1)-benzo[d]imidazola-2(2,4)-pyridina-1(4,5)-pyrazola-7(1,3)-cyclopentanacyclononaphane-5^6-yl)-2-(methoxymethyl)piperazin-1-yl)piperidin-1-yl)phenyl)piperidine-2,6-dione], in assay [1], the “Imax (%)” value turned out to be 94.62% and the IC50 was determined as 1.34 nM. In assay [2], this molecule had a DC50 of 4.45 nM and a Dmax of 88.7%. In assay [3], the “Imax (%)” value is recorded as 93.3% and the midpoint of inhibition, the IC50, lay at 4.83 nM. In assay [4], the DC50 was 3.32 nM and the Dmax came out at 91.1%.
For `Cc1cc2cc(n1)-c1c(C)nn(C)c1OC[C@H]1CC[C@H](C1)CN1/C(=N/C2=O)Nc2ccc(N3CCC(CN(C)C4CCN(c5cc(F)c([C@H]6CCC(=O)NC6=O)c(F)c5)CC4)CC3)cc21` [Example 138, (R)-3-(2,6-difluoro-4-(4-(methyl((1-((7^1R,7^3S,E)-1^1,1^3,2^6-trimethyl-3-oxo-5^2′5^3-dihydro-1^1H,5^1H-9-oxa-4-aza-5(2,1)-benzo[d]imidazola-2(2,4)-pyridina-1(4,5)-pyrazola-7(1,3)-cyclopentanacyclononaphane-5^6-yl)piperidin-4-yl)methyl)amino)piperidin-1-yl)phenyl)piperidine-2,6-dione], the figures for the “Imax (%)” value in assay [1] and in assay [3] were 102.96% and 104.27%, respectively. The IC50 was 1.37 nM in assay [1] and 7.09 nM in assay [3]. Moreover, the figures for the 50% degradation concentration (DC50) in assay [2] and in assay [4] were 1.27 nM and 3.61 nM, respectively. In addition, the Dmax in assay [2] stood at 83.4%; in assay [4], 85.5%.
Take `COCC1(N2CCN(c3ccc4c(c3)N3CC5CC[C@H](COc6c(cnn6C)-c6cc(cc(C)n6)C(=O)/N=C/3N4)C5)CC2)CCN(c2ccc(C3CCC(=O)NC3=O)nc2C)CC1` (some centres unmarked) [Example 106, 3-(5-(4-(4-((7^1R,7^3S,E)-1^1,2^6-dimethyl-3-oxo-5^2,5^3-dihydro-1^1H,5^1H-9-oxa-4-aza-5(2,1)-benzo[d]imidazola-2(2,4)-pyridina-1(4,5)-pyrazola-7(1,3)-cyclopentanacyclononaphane-5^6-yl)piperazin-1-yl)-4-(methoxymethyl)piperidin-1-yl)-6-methylpyridin-2-yl)piperidine-2,6-dione]: in assay [1], the “Imax (%)” value was determined as 99.8% and the IC50 was 0.8 nM. For the same molecule, in assay [2], the DC50 was determined as 2.45 nM and the Dmax amounted to 83.3%. Moreover, in assay [3], the “Imax (%)” value turned out to be 97.6% and the IC50 stood at 16 nM. In addition, in assay [4], the DC50 came to 6.69 nM and the Dmax stood at 82.5%.
Turning to `Cc1cc2cc(n1)-c1cnn(C)c1OC[C@H]1CCC(C1)CN1/C(=N/C2=O)Nc2ccc(N3CCN(C4CCN(c5ccc(NC6CCC(=O)NC6=O)cc5Cl)CC4)CC3)cc21` (some centres unmarked) [Example 103, 3-((3-chloro-4-(4-(4-((7^1R,7^3S,E)-1^1,2^6-dimethyl-3-oxo-5^2,5^3-dihydro-1^1H,5^1H-9-oxa-4-aza-5(2,1)-benzo[d]imidazola-2(2,4)-pyridina-1(4,5)-pyrazola-7(1,3)-cyclopentanacyclononaphane-5^6-yl)piperazin-1-yl)piperidin-1-yl)phenyl)amino)piperidine-2,6-dione], the “Imax (%)” value was found to be 102% in assay [1] and 95.6% in assay [3]. Besides, the IC50 was 0.8 nM in assay [1] and 16.3 nM in assay [3]. In addition, the DC50 worked out at 2.53 nM in assay [2] and 3.38 nM in assay [4]. Besides, the Dmax in assay [2] was 83.3%; in assay [4], 81.6%.
On to `COC[C@@H]1CN(c2cc3c(cc2C)N/C2=N\C(=O)c4cc(C)nc(c4)-c4cnn(C)c4OC[C@H]4CC[C@H](C4)CN23)CCN1C1CCN(c2cc(F)c([C@H]3CCC(=O)NC3=O)c(F)c2)CC1` [Example 96, (R)-3-(2,6-difluoro-4-(4-((S)-2-(methoxymethyl)-4-((7R,7^3S,E)-1^1,2^6,5^5-trimethyl-3-oxo-5^2,5^3-dihydro-1^1H,5^1H-9-oxa-4-aza-5(2,1)-benzo[d]imidazola-2(2,4)-pyridina-1(4,5)-pyrazola-7(1,3)-cyclopentanacyclononaphane-5^6-yl)piperazin-1-yl)piperidin-1-yl)phenyl)piperidine-2,6-dione], for which, in assay [1], the “Imax (%)” value was 100.9% and the IC50 worked out at 0.8 nM. Moreover, in assay [2], the DC50 stood at 3.15 nM and the Dmax came out at 82.7%. In addition, in assay [3], the “Imax (%)” value came to 100.3% and the IC50 worked out at 6.3 nM. Also, in assay [4], half-maximal degradation (DC50) was put at 3.41 nM and the Dmax came to 86.6%.
